Experimental data taken from PubChem BioAssay AID1963858 (Molecular Pharmacology Branch, DTP, NCI, 2024).

Test system: HOP-62 multicell spheroids with HUVEC/MSC, viability
Test: Anticancer human tumor HOP-62 cell line growth inhibition [KRAS2];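 also: viability read after a week of compound exposure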;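 as to viability, T/C: 100% = DMSO vehicle-treated spheroids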
Settings: for IC50: curve of first compound; for viability, T/C: stronger effect = lower value
Excerpt: Multicellular complex tumor spheroid response to RAS pathway inhibitors in combination with a targeted agents in patient-derived cell lines with oncogenic KRAS variants from multiple cancer types
A high-throughput screen of multi-cell type tumor spheroids was designed to identify active combinations of targeted small molecules and KRAS pathway inhibitors. Complex spheroids include a stromal component modeled by human endothelial cells (HUVEC) and fibroblasts modeled by human mesenchymal stem cells (MSCs). The concentration ranges selected for each drug and investigational agent were based upon clinically achievable concentrations if the clinical Cmax of the agent was known.
Compounds. The drugs and investigational agents: BI-3406 (NSC825286), BAY-293 (NSC824723), batoprotafib (TNO155; NSC825523), sotorasib (AMG 510; NSC818433), MRTX1257 (NSC819558), elimusertib (BAY 1895344; NSC800525), molibresib (GSK525762; NSC774829), temuterkib (LY3214996; NSC803410), venetoclax (NSC766270), alisertib (NSC759677), olaparib (NSC753686), talazoparib (NSC767125), erdafitinib (NSC781556), ipatasertib (NSC767898), cabozantinib (NSC761068), nintedanib (NSC756659), abemaciclib (NSC768073), docetaxel (NSC628503), trametinib (NSC758246), and sapanisertib (NSC764658) were obtained from the National Cancer Institute (NCI) Developmental Therapeutics Program Chemical Repository. The FDA-approved anticancer drug set is available from the Developmental Therapeutics Program. […] The stock solutions were prepared in dimethyl sulfoxide (DMSO, Sigma-Aldrich, St. Louis, MO, cat. D2650) at 800-fold the tested concentration and stored at -70 degrees C prior to their use. All drugs and investigational agents were tested over a range starting from a high concentration at or near the clinical Cmax and decreasing in half-log increments. If the clinical Cmax for an agent had not been determined, the highest concentration tested was 10 microM.
Cell Culture. All cells were maintained in an incubator at 37 degrees C and 5% CO2 with 95% humidity. The PDC lines were cultured according to standard operating procedures established by the NCI PDMR (https://pdmr.cancer.gov/sops/default.htm). Briefly, all PDCs were thawed and cultured in Matrigel-coated flasks prepared with a working solution of 1X Ham's F-12 nutrient mix, without supplementation (Invitrogen, Waltham, MA, cat. 11765054), 100 U/mL penicillin-streptomycin (Invitrogen, cat. 15140122), and 2.5% Matrigel (Corning Inc., Corning, NY, cat. 354248) for the first three passages. All PDCs were cultured in complete DMEM/F-12 media containing advanced DMEM/F-12 (Invitrogen, cat. 12634028), 4.9% defined fetal bovine serum, heat inactivated (HyClone Laboratories Inc., Logan, UT, cat. SH30070.03HI), 389 ng/mL hydrocortisone (Sigma-Aldrich, cat. H4001), 9.7 ng/mL human EGF recombinant protein (Invitrogen, cat. PHG0313), 23.4 microg/mL adenine (Sigma-Aldrich, cat. A2786), 97.3 U/mL penicillin-streptomycin (Invitrogen, cat. 15140122), 1.9 mM L-glutamine (Invitrogen, cat. 25030081), and 9.7 microM Y-27632 dihydrochloride (Tocris Bioscience, Bristol, United Kingdom, cat. 1254). The PDCs were cultured in complete DMEM/F12 media without 9.7 microM Y-27632 dihydrochloride for at least two passages prior to the screen. The established cell line HOP-62 was cultured in RPMI 1640 medium, HEPES (Invitrogen, cat. 22400105) with 10% defined fetal bovine serum (HyClone Laboratories Inc., cat. SH30070.03) and 2 mM L-glutamine (Invitrogen, cat. 25030081). The pooled donor HUVEC were cultured in endothelial cell growth medium 2 (PromoCell, Heidelberg, Germany, cat. C-22011) and the hMSC were cultured in mesenchymal stem cell growth medium 2 (PromoCell, cat. C-28009). For all experiments, HUVEC and hMSC were used at passages </=5, while the malignant cell lines were used at passages </=15. […]

[1] = second compound 0.0316 µM, first compound 0.000316 µM
[2] = second compound 0.0316 µM, first compound 0.001 µM
[3] = second compound 0.0316 µM, first compound 0.00316 µM
[4] = second compound 0.0316 µM, first compound 0.01 µM
[5] = second compound 0.0316 µM, first compound 0.0316 µM
[6] = second compound 0.0316 µM, first compound 0.1 µM
[7] = second compound 0.1 µM, first compound 0.000316 µM
[8] = second compound 0.1 µM, first compound 0.001 µM
[9] = second compound 0.1 µM, first compound 0.00316 µM
[10] = second compound 0.1 µM, first compound 0.01 µM
[11] = second compound 0.1 µM, first compound 0.0316 µM
[12] = second compound 0.1 µM, first compound 0.1 µM
[13] = second compound 0.316 µM, first compound 0.000316 µM
[14] = second compound 0.316 µM, first compound 0.001 µM
[15] = second compound 0.316 µM, first compound 0.00316 µM
[16] = second compound 0.316 µM, first compound 0.01 µM
[17] = second compound 0.316 µM, first compound 0.0316 µM
[18] = second compound 0.316 µM, first compound 0.1 µM
[19] = second compound 1 µM, first compound 0.000316 µM
[20] = second compound 1 µM, first compound 0.001 µM
[21] = second compound 1 µM, first compound 0.00316 µM
[22] = second compound 1 µM, first compound 0.01 µM
[23] = second compound 1 µM, first compound 0.0316 µM
[24] = second compound 1 µM, first compound 0.1 µM
[25] = second compound 3.16 µM, first compound 0.000316 µM
[26] = second compound 3.16 µM, first compound 0.001 µM
[27] = second compound 3.16 µM, first compound 0.00316 µM
[28] = second compound 3.16 µM, first compound 0.01 µM
[29] = second compound 3.16 µM, first compound 0.0316 µM
[30] = second compound 3.16 µM, first compound 0.1 µM

Compound	IC50 (second compound 0.0316 µM) [pM]	IC50 (second compound 0.1 µM) [pM]	IC50 (second compound 0.316 µM) [pM]	IC50 (second compound 1 µM) [pM]	IC50 (second compound 3.16 µM) [pM]	viability, T/C [1] [%]	viability, T/C [2] [%]	viability, T/C [3] [%]	viability, T/C [4] [%]	viability, T/C [5] [%]	viability, T/C [6] [%]	viability, T/C [7] [%]	viability, T/C [8] [%]	viability, T/C [9] [%]	viability, T/C [10] [%]	viability, T/C [11] [%]	viability, T/C [12] [%]	viability, T/C [13] [%]	viability, T/C [14] [%]	viability, T/C [15] [%]	further results
CC(C)n1nc(-c2ccc3oc(N)nc3c2)c2c(N)ncnc21 + C=CC(=O)N1CCN(c2nc(OCC3CCCN3C)nc3c2CCN(c2cccc4cccc(C)c24)C3)CC1CC#N	471	< 316	< 316	< 316	< 316	57.1	37	23.5	17.5	12.1	9.28	36.3	30.6	14.9	12.8	11	8.68	29.9	19.6	14.9	viability, T/C [16]: 10.6%; viability, T/C [17]: 8.56%; viability, T/C [18]: 7.08%; viability, T/C [19]: 23.1%; viability, T/C [20]: 16.1%; viability, T/C [21]: 13.3%; viability, T/C [22]: 9.5%; viability, T/C [23]: 7.25%; viability, T/C [24]: 5.88%; viability, T/C [25]: 5%; viability, T/C [26]: 0.34%; viability, T/C [27]: 2.87%; viability, T/C [28]: 0.44%; viability, T/C [29]: 0.63%; viability, T/C [30]: 0.48%
Cn1ncnc1[C@H]1c2n[nH]c(=O)c3cc(F)cc(c23)N[C@@H]1c1ccc(F)cc1 + C=CC(=O)N1CCN(c2nc(OCC3CCCN3C)nc3c2CCN(c2cccc4cccc(C)c24)C3)CC1CC#N	> 100000	9860	< 316	< 316	< 316	88.8	79.7	82.3	75.7	74.3	59.7	64.6	58.3	74	49.8	41.9	44.7	48.7	42	40.6	viability, T/C [16]: 38.5%; viability, T/C [17]: 30.6%; viability, T/C [18]: 33%; viability, T/C [19]: 32.4%; viability, T/C [20]: 30.2%; viability, T/C [21]: 27.1%; viability, T/C [22]: 25.7%; viability, T/C [23]: 24.8%; viability, T/C [24]: 22.1%; viability, T/C [25]: 0.61%; viability, T/C [26]: 0.57%; viability, T/C [27]: 0.44%; viability, T/C [28]: 0.5%; viability, T/C [29]: 0.51%; viability, T/C [30]: 0.71%
